Experimental data from US20090011405A1 (priority 2003, published 2009).

Key:
[1] = tested on: JUN1 and JUNZ (c-Jun self dimerization); test: Reverse two-hybrid assay with JUN1 and JUNZ, background and plating efficiency; type: cell-based, yeast
Protocol: A reverse two-hybrid assay was performed using the interacting proteins JUN1 (amino acids 187-334, inclusive, of the JUN protein) and JUNZ (amino acids 259-309, inclusive, of the JUN protein) both of which comprise the leucine zipper domain of c-Jun (ie the region necessary for self dimerization). As a positive control FOSZ (amino acids 111-195, inclusive, of the FOS protein), a known blocker of c-Jun self dimerization was used. As a negative control, the expression vector alone was used. Gene constructs were transformed into cells comprising the negative selectable markers URA3 and CYH2.
Cells comprising only the interacting partners or the interacting partners and FOSZ (19F) or the interacting partners and the negative control (19) were grown in various concentrations of uracil (from 10 mg/L to 0 mg/L). All cells were also plated in the presence of 0.02% galactose; 0.04% FOA; and 5 μg/ml cycloheximide.
Background was determined by estimating the number of cells (colonies) that expressed only JUN1 and JUNZ and were still capable of growing in the presence of 5-FOA. Plating efficiency was determined by estimating the number of cells out of the 500 plated that expressed JUN1, JUNZ and FOSZ that were capable of growing in each set of conditions.
Using the same expression constructs and cells as in Example 2 cells were plated in the presence of increasing concentrations of 5-FOA and uracil. […]

[2] = target: JUN1 (amino acids 187-334, inclusive, of the JUN protein); test: cell-based or functional assay
[3] = target: JUNZ (amino acids 259-309, inclusive, of the JUN protein); test: cell-based or functional assay

`C[C@@H]1C[C@@H]([C@H](O)CC2CC(=O)NC(=O)C2)C(=O)[C@@H](C)C1` [cycloheximide] was tested, and the “background (effect of increasing cycloheximide concentration)” value ([1]; JUN1/JUNZ cells, 0.2 or 0.5 mg/L uracil, 0.06% 5-FOA, 10000 or 100000 cells plated) was “lower levels of background”.

`O=c1cc[nH]c(=O)[nH]1` [uracil] was tested, and the “background (effect of increased uracil concentration)” value ([1]; JUN1/JUNZ cells, uracil 10 to 0 mg/L, 0.02% galactose, 0.04% FOA, 5 μg/ml cycloheximide) was “increased background”, the “plating efficiency (effect of increased uracil concentration)” value ([1]; JUN1/JUNZ/FOSZ cells, uracil 10 to 0 mg/L, 0.02% galactose, 0.04% FOA, 5 μg/ml cycloheximide) was “reduced plating efficiency” and the background ([1]; cells expressing only JUN1 and JUNZ, 0.25 and 0.5 mg/L uracil, 0.02% galactose, 0.04% FOA, 5 μg/ml cycloheximide) was 0%.

Work on “FOSZ (amino acids 111-195, inclusive, of the FOS protein) (from UniProt P01100 111-195)” yielded a plating efficiency (cells expressing JUN1, JUNZ and FOSZ that grow under counter-selection) [2] of over 40% and a plating efficiency (cells expressing JUN1, JUNZ and FOSZ that grow under counter-selection) [3] of over 40%.

“JUN1 (amino acids 187-334, inclusive, of the JUN protein)” showed a background (colonies expressing only JUN1 and JUNZ that still grow in the presence of 5-FOA) [3] of 0%.

B1: FOSZ: amino acids 111-195, inclusive, of the FOS protein, a known blocker of c-Jun self dimerization (protein)
chain: VVKTMTGGRAQSIGRRGKVEQLSPEEEEKRRIRRERNKMAAAKCRNRRRELTDTLQAETDQLEDEKSALQTEIANLLKEKEKLEF
For B1, the plating efficiency ([1]; cells expressing JUN1, JUNZ and FOSZ (19F), 500 plated, low concentrations of uracil, 0.02% galactose, 0.04% FOA, 5 μg/ml cycloheximide) was “greater than 40%”.
